The target of one assay is T1, c-Met (Homo sapiens, UniProt P08581).
T1 construct: endogenous in cells; host or cells: A549 cells
The experiment in a line: c-Met cell-based assay (phospho-c-Met ELISA, A549 cells). The settings on record: compound at 100 nM. As to the method:
A procedure for standard cell-based assay for c-Met kinase activity can be used to test compounds of this invention for their inhibitory effect on this kinase and to identify c-Met antagonists.
Specifically, a compound to be tested was first dissolved in DMSO to a concentration of 10 mM and stored at −20° C. The activity of c-Met in cells depends on the phosphorylation level at its intracellular domain induced by its ligand, Hepatocyte growth factor (HGF). In order to induce the cells to produce phosphate c-Met, paracrine HGF-dependent NSCLC (None Small Cell Lung Cancer) A549 cells were grown in DMEM with 10% FBS.
To screen compounds of this invention for their inhibitory effect on c-Met kinase, the ELISA kit (R&D Systems) was used. One day before screening procedure, A549 cells were grown in DMEM without the presence of serum. On the day of screening procedure, various concentrations of compounds (from 0.5 nM to 500 nM) were added into the culture medium. Two hours later, 20% of FBS (Fetal Bovine Serum) was added into the medium to stimulate the expression of phosphor-c-Met. After 20 minutes, cell lysate from approximately 5×10^5 A549 cells were reacted with anti-phosphor-c-Met or anti total c-Met antibody in 96 well plates. In the presence of detection antibody, the phosphor-c-Met or total c-Met can be detected with Streptavidin-HRP (R&D Systems) followed by chemiluminescence detection.
A general note: In an ELISA, binding on a coated surface is turned into a signal by an enzyme label.

The target of the next assay is T2, PDGFRβ (Homo sapiens, UniProt P09619).
T2 construct: expressed in transfected cells; host or cells: CHO cells, pcDNA3.1 plasmid
The experiment in a line: PDGFRβ cell-based assay (phospho-PDGFRβ ELISA, transfected CHO cells). Particulars: compound at 100 nM, read-out: % PDGFRβ kinase activity remains. How it is done:
A standard cell-based assay for PDGFRβ kinase activity can be used to test a compound of this invention and to identify PDGFRβ antagonists.
Specifically, a compound to be tested was first dissolved in DMSO to a concentration of 10 mM and stored at −20° C. The activity of PDGFRβ in cells depends on the phosphorylation level of its intracellular domain induced by the ligand. In order to express PDGFRβ in the cell, full length PDGFRβ sequence was cloned into PC-DNA3.1 vector. The plasmid was then transfected into CHO cells. After 48 hours following the transfection, the expression of PDGFRβ in transfected CHO cells was confirmed by regular western blotting.
To screen the compound of this invention, the ELISA kit (R&D Systems, Minneapolis, Minn., USA) was used. One day before the screening, CHO cells transfected with full length PDGFRβ plasmid were grown in DMEM medium without the presence of serum. On the day of screening, various concentrations of compounds (from 0.5 nM to 500 nM) were added into DMEM medium. Two hours later, 20% of FBS (Fetal Bovine Serum) was added into the medium to stimulate the expression of phosphor-PDGFRβ. Cell lysate from approximately 5×10^5 transfected CHO cells were reacted with anti-phosphor-PDGFRβ or anti-total PDGFRβ antibody in 96 well plates, in the presence of detection antibody, the phosphor-PDGFRβ or total PDGFRβ were detected with Streptavidin-HRP (R&D Systems), followed by chemiluminescent detection.

A further assay has as its target T3, VEGFR2 (Homo sapiens, UniProt P35968).
T3 construct: expressed in transfected cells; host or cells: CHO cells, pcDNA3.1 plasmid
Nature of the assay: VEGFR2 cell-based assay (phospho-VEGFR2 ELISA, transfected CHO cells). Particulars: compound at 100 nM, read-out: % VEGFR2 kinase activity remains. How it is done: A standard cell-based assay for VEGFR2 kinase activity can be used to test compounds of this invention and to identify VEGFR2 antagonists.
Specifically, a compound to be tested was first dissolved in DMSO to a concentration of 10 mM and stored at −20° C. The activity of VEGFR2 in cells depends on the phosphorylation level at its intracellular domain induced by the ligand. In order to express VEGFR2 in the cells, full length VEGFR2 sequence was cloned into PC-DNA3.1 vector, the plasmid was then transfected into CHO cells. After 48 hours, the expression of VEGFR2 in transfected CHO cells was confirmed by regular western blotting.
To screen the compounds of this invention, the ELISA kit (R&D Systems) was used. One day before the screening, CHO cells transfected with full length VEGFR2 plasmid were grown in DMEM medium without the presence of serum. On the day of screening, various concentrations of compounds (From 0.5 nM to 500 nM) were added into DMEM medium. Two hours later, 20% of FBS (Fetal Bovine Serum) was added into the medium to stimulate the production of phosphor-VEGFR2. Cell lysate from approximately 5×10^5 transfected CHO cells were reacted with anti-phosphor-VEGFR2 or anti-total VEGFR2 antibody in 96 well plates. In the presence of detection antibody, the phosphor-VEGFR2 or total VEGFR2 were detected with Streptavidin-HRP (R&D Systems) followed by chemiluminescence detection.

Counter-ions that a name gives are not always drawn. Some results are limits rather than exact numbers.

T2 sequence (P09619 33-1106, species assumed): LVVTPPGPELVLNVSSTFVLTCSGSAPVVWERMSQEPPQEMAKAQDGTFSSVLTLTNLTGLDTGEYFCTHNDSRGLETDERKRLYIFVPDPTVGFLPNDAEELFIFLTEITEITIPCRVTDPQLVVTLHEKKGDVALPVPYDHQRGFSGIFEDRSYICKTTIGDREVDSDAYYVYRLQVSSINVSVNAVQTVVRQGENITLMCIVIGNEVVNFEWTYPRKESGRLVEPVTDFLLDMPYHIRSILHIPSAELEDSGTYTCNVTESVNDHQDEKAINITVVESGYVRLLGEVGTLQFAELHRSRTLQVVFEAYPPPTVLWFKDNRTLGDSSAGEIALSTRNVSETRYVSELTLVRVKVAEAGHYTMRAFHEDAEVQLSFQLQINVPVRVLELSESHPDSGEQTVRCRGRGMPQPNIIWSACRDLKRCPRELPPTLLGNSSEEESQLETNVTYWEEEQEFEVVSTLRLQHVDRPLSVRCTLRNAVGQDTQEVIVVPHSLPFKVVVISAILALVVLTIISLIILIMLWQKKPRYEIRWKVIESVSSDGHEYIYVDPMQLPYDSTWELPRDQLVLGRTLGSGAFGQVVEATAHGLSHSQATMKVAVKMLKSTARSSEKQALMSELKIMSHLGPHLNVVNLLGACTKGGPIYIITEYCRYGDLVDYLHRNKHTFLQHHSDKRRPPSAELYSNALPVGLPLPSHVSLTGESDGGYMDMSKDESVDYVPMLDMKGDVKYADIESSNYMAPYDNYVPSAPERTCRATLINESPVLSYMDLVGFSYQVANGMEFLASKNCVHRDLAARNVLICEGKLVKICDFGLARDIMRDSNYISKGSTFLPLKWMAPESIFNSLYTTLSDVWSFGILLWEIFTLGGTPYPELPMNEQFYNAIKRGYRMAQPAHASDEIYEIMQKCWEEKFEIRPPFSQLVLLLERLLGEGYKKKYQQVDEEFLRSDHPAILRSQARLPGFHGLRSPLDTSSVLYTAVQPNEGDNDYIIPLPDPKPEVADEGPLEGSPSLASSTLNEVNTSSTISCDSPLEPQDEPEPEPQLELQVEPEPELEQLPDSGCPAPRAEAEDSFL
T3 sequence (P35968 20-1356, species assumed): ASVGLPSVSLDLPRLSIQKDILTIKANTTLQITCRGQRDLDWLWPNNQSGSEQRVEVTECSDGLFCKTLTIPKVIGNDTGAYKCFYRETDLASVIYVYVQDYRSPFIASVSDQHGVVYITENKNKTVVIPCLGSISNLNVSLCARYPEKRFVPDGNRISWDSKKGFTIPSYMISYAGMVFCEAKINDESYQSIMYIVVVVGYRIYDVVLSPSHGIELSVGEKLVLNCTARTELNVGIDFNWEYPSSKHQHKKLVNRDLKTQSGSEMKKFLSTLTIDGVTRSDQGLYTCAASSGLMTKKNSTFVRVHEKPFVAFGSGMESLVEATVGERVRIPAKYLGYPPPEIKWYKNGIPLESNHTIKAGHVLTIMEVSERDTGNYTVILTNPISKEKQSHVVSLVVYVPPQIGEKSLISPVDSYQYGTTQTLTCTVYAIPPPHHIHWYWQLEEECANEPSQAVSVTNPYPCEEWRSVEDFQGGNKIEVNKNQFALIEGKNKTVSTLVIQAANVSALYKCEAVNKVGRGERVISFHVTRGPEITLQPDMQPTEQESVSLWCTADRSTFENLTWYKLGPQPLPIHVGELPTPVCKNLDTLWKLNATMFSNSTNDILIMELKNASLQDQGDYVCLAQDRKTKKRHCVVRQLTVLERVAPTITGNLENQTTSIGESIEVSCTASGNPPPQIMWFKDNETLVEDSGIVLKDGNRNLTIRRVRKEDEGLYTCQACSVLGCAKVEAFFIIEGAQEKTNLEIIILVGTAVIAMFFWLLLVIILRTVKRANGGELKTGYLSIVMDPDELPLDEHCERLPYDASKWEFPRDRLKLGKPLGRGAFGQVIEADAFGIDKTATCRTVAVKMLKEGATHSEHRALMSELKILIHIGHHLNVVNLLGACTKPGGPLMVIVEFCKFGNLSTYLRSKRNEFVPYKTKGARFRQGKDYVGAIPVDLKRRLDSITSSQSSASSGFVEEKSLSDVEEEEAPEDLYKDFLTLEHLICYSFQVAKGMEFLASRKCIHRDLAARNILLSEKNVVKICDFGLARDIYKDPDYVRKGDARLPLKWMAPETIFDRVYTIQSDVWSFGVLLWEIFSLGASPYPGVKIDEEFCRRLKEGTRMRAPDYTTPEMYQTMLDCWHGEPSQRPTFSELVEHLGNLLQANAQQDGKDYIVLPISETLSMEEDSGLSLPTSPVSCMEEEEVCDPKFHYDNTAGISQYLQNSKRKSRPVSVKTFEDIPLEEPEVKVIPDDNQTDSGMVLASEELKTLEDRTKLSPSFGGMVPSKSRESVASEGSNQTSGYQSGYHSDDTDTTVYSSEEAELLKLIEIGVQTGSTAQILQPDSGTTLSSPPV
T1 sequence (P08581 25-1390): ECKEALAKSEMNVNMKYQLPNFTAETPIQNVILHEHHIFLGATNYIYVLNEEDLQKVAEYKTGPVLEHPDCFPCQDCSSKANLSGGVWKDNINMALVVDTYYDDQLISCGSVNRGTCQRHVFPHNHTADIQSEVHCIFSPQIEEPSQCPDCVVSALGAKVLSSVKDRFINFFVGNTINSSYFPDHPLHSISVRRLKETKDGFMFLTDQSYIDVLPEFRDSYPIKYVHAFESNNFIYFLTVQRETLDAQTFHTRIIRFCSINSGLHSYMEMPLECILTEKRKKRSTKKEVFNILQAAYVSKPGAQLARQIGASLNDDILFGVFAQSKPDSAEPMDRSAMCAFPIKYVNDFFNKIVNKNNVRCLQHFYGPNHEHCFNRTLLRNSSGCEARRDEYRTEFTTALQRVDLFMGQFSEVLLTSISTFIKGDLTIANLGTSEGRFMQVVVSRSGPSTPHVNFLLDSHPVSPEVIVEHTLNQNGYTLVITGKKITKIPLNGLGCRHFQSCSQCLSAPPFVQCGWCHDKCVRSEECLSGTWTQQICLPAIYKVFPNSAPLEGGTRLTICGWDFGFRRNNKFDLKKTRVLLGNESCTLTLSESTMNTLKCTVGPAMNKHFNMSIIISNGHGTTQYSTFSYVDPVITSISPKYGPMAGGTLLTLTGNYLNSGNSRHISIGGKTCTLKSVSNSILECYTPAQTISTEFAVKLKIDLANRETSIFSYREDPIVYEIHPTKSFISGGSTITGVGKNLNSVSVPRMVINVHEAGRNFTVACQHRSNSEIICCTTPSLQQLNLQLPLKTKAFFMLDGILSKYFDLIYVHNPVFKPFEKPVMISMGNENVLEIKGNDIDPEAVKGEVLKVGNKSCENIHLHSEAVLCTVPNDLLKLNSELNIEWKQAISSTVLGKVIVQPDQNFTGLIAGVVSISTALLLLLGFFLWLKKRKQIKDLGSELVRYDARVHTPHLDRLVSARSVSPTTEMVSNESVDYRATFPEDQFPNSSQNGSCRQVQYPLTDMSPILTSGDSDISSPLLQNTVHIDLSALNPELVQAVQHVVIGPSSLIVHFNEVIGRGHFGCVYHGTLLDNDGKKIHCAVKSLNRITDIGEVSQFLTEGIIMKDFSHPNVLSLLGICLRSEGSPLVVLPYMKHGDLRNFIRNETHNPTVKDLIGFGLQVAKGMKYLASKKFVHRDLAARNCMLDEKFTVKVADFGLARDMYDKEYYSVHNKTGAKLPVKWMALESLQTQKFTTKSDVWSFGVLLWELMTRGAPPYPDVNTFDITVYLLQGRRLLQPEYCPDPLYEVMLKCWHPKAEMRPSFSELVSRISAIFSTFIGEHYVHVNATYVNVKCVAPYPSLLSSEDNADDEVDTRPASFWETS

`Cl.O=C(Nc1ccc(C(F)(F)F)cc1)Nc1cccc2c1ccn2Cc1ccnc2[nH]ccc12` [Example 52, 1-(4-Trifluoromethylphenyl)-3-[1-(1H-pyrrolo[2,3-b]pyridin-4-ylmethyl)-1H-indol-4-yl]urea hydrochloride]: the “% c-Met kinase activity remains” value at c-Met is “B (the percentage is greater or equal to 70%)”. In addition, the remaining activity at 0.1 µM on PDGFRβ is at least 70%; at VEGFR2, under 70%.
In the case of `COc1ccc(OC)c(NC(=O)Nc2cccc3c2ccn3Cc2c[nH]c3ncccc23)c1.Cl` [Example 32, 1-(2,5-Dimethoxyphenyl)-3-[1-(1H-pyrrolo[2,3-b]pyridin-3-ylmethyl)-1H-indol-4-yl]urea hydrochloride], the “% c-Met kinase activity remains” value on c-Met is “A (the percentage of kinase activity remains is below 70%)”. The results for the remaining activity at 0.1 µM on PDGFRβ and at VEGFR2 were at least 70% and under 70%, respectively.
`Cl.O=C(Nc1cccc(Br)c1)Nc1cccc2c1ccn2Cc1c[nH]c2ncccc12` [Example 12, 1-(3-Bromophenyl)-3-[1-(1H-pyrrolo[2,3-b]pyridin-3-ylmethyl)-1H-indol-4-yl]urea hydrochloride]: the “% c-Met kinase activity remains” value at c-Met is “A (the percentage of kinase activity remains is below 70%)”. Besides, the results for the remaining activity at 0.1 µM on PDGFRβ and on VEGFR2 were at least 70% and under 70%, respectively.
Turning to `O=C(Nc1ccc(Cl)cc1)Nc1cccc2c1ccn2Cc1c[nH]c2ncccc12` [Example 10, 1-(4-Chlorophenyl)-3-[1-(1H-pyrrolo[2,3-b]pyridin-3-ylmethyl)-1H-indol-4-yl]urea hydrochloride], the “% c-Met kinase activity remains” value on c-Met is reported as “B (the percentage is greater or equal to 70%)”. Moreover, the remaining activity at 0.1 µM on PDGFRβ and at VEGFR2 was at least 70% throughout.
As for `Cl.O=C(Nc1ccc(Cl)cc1F)Nc1cccc2c1ccn2Cc1ccnc2[nH]ccc12` [Example 55, 1-(2-Fluoro-4-chlorophenyl)-3-[1-(1H-pyrrolo[2,3-b]pyridin-4-ylmethyl)-1H-indol-4-yl]urea hydrochloride], the “% c-Met kinase activity remains” value on c-Met is recorded as “B (the percentage is greater or equal to 70%)”. For the same compound, the remaining activity at 0.1 µM at PDGFRβ was at least 70%; on VEGFR2, under 70%.
In the case of `Cl.O=C(Nc1ccccc1)Nc1cccc2c1ccn2Cc1c[nH]c2ncccc12` [Example 4, 1-Phenyl-3-[1-(1H-pyrrolo[2,3-b]pyridin-3-ylmethyl)-1H-indol-4-yl]urea hydrochloride], the “% c-Met kinase activity remains” value at c-Met is “B (the percentage is greater or equal to 70%)”. For the same compound, the remaining activity at 0.1 µM at PDGFRβ and on VEGFR2 was at least 70% in each case.
For the compound `Cl.O=C(Nc1ccc(Cl)cc1F)Nc1cccc2c1ccn2Cc1c[nH]c2ncccc12` [Example 28, 1-(2-Fluoro-4-chlorophenyl)-3-[1-(1H-pyrrolo[2,3-b]pyridin-3-ylmethyl)-1H-indol-4-yl]urea hydrochloride], the “% c-Met kinase activity remains” value at c-Met is reported as “A (the percentage of kinase activity remains is below 70%)”. Further, the remaining activity at 0.1 µM on PDGFRβ is at least 70%; on VEGFR2, under 70%.
For `Cl.O=C(Nc1ccc(Br)cc1)Nc1cccc2c1ccn2Cc1c[nH]c2ncccc12` [Example 13, 1-(4-Bromophenyl)-3-[1-(1H-pyrrolo[2,3-b]pyridin-3-ylmethyl)-1H-indol-4-yl]urea hydrochloride], the “% c-Met kinase activity remains” value at c-Met is “A (the percentage of kinase activity remains is below 70%)”. Besides, the remaining activity at 0.1 µM on PDGFRβ and on VEGFR2 was at least 70% in each case.
Take `Cl.O=C(Nc1ccc(F)cc1)Nc1cccc2c1ccn2Cc1ccnc2[nH]ccc12` [Example 36, 1-(4-Fluorophenyl)-3-[1-(1H-pyrrolo[2,3-b]pyridin-4-ylmethyl)-1H-indol-4-yl]urea hydrochloride]: at c-Met, the “% c-Met kinase activity remains” value is listed as “A (the percentage of kinase activity remains is below 70%)”. For the same compound, the values for the remaining activity at 0.1 µM on PDGFRβ and on VEGFR2 were at least 70% and under 70%, respectively.

The values above are taken from patent US8648086B2, “5,6-bicyclic heteroaryl-containing urea compounds as kinase inhibitors” (Ascepion Pharmaceuticals, Inc., priority 2009, dated 2014).
